These results are taken from patent US4311645A, “Synthesis of SRS-active compounds” (Hoffmann-La Roche Inc., priority 1980, dated 1982).

For one assay, the system named is Compound E. Description: Inhibition of contraction of guinea pig ileum induced by Compound E. Format: cell-based. The note with it: Cavia porcellus.
For the next assay, the system named is natural SRS-A. Description: Inhibition of contraction of guinea pig ileum induced by natural SRS-A. It counts as cell-based. The note with it: Cavia porcellus; read-out: IC50 against natural SRS-A. How it is done: (§1) SRS-A was assayed utilizing the procedure described by Orange and Austen, J. Immunol. 10, 105 (1969) as follows: a 1.5 cm segment of ileum was removed from male guinea pigs weighing from 250 to 300 grams. The segment of ileum was suspended in a 10 ml organ bath containing Tyrodes solution. The ileum was attached to a strain gauge transducer and contractions were recorded on a strip chart recorder. The bath contained 10^-6 M atropine sulfate to block contractions which might be caused by acetylcholine and 10^-6 M pyrilamine maleate to block histamine-induced contractions. The bath was maintained at 37° C. and gassed with a mixture of 95% O2 and 5% CO2. The concentration of SRS-A in the filtrate obtained by challenging lung tissue with egg albumin was determined by comparing the contraction solicited by a given volume of the filtrate with the contraction elicited by […] of histamine (in the absence of pyrilamine maleate). One unit of SRS-A is equivalent to that quantity which will give the same contraction as this amount of histamine. […] After standardization, this SRS-A was stored in small aliquots at -80° C. for further use. […]
(§2) The assay was carried out as described in Example 23. […] The difference in the level of the contraction obtained in the absence and presence of varying concentrations of Compound I was determined. […]

A further assay concerns Compound B. Description: Inhibition of contraction of guinea pig ileum induced by Compound B. Format: cell-based. The note with it: Compound B at its EC50, n=1, extrapolated from graph. The protocol: as §1, §2
The next assay deals with guinea pig ileum. Description: SRS-A activity: contraction of isolated guinea pig ileum (bioassay). Particulars: read-out: EC50 (concentration giving 50% of the maximal contraction of the ileum produced by natural SRS-A), 37° C, atropine sulfate 10^-6 M and pyrilamine maleate 10^-6 M in bath, average ± S.E., n = 2-5 ileums. It counts as cell-based. The protocol: SRS-A was assayed utilizing the procedure described by Orange and Austen, J. Immunol. […] The segment of ileum was suspended in a 10 ml organ bath containing Tyrodes solution. The ileum was attached to a strain gauge transducer and contractions were recorded on a strip chart recorder. The bath contained 10^-6 M atropine sulfate to block contractions which might be caused by acetylcholine and 10^-6 M pyrilamine maleate to block histamine-induced contractions. The bath was maintained at 37° C. and gassed with a mixture of 95% O2 and 5% CO2. The concentration of SRS-A in the filtrate obtained by challenging lung tissue with egg albumin was determined by comparing the contraction solicited by a given volume of the filtrate with the contraction elicited by […] of histamine (in the absence of pyrilamine maleate). One unit of SRS-A is equivalent to that quantity which will give the same contraction as this amount of histamine. […] After standardization, this SRS-A was stored in small aliquots at -80° C. for further use.

The conditions of assay [1]: background, literature; cited from earlier work.

pEC50, pIC50: −log10 of the molar value. Structures can show the parent of a compound that is named as a salt. Where two headings read alike, the source gives them in different places.

For the molecule `CCCCCC#CCC#C/C=C/C=C/[C@H]1O[C@@H]1CCCC(=O)OC` (relative stereo) [(R,S) (All E)-3-(1,3-tetradecadien-5,8-diynyl)-trans-oxiranebutanoic acid methyl ester], the pIC50 (in general, the IC50 on a negative log10 scale, so that one unit is a factor of ten) with Compound E (Example 26, SRS-A active compound used: Compound E, n=1, read-out: IC50 (antagonist against synthetic Compound E)) was 5.00.
As to `CCCc1c(OCC(O)COc2ccc3c(=O)cc(C(=O)O)oc3c2CCC)ccc(C(C)=O)c1O` (centres unmarked) [Compound I, 7-[3-(4-acetyl-3-hydroxy-2-propylphenoxy)-2-hydroxypropoxy]-4-oxo-8-propyl-4H-benzopyran-2-carboxylic acid], the pIC50 was 7.43 with natural SRS-A; 7.46 in the assay with Compound B (Cavia porcellus, read-out: IC50 against Compound B, 3 min preincubation); 7.40 with Compound B (read-out: IC50 against Compound B, 3 min preincubation); 7.40 in the assay with Compound E (read-out: IC50 against Compound E).
For the molecule `CCCCCC#CCC#C/C=C/C=C/[C@@H](SC[C@H](N)C(=O)O)[C@@H](O)CCCC(=O)O` [D, (5S,6R) (E,E)-S-(5-hydroxy-1-hydroxy-1-oxoeicosa-7,9-dien-11,14-diyn-6-yl)-L-cysteine mono ammonium salt], in the assay on guinea pig ileum (Cavia porcellus), the pEC50 was 5.96.
`CCCCCC=CCC=CC=CC=CC(SCC(N)C(=O)O)C(O)CCCC(=O)O` (centres unmarked) [compound obtained by Samuelsson]: in assay [1], the SRS-A activity result is reported as “found to have SRS-A activity”.
With “(5R,6S) (E,E,Z,Z)-S-(5-hydroxy-1-methoxy-1-oxoeicosa-7,9,11,14-tetraen-6-yl)-L-cysteine mono ammonium salt”, the pEC50 in the assay with guinea pig ileum was 7.55.
